According to patent US4436751A, “Nitrobenzyl monates antibacterial compounds” (Beecham Group Limited, priority 1980, dated 1984):
Converted amounts (≈) assume the structure as drawn. Read-outs that look alike come from different tables or passages of the source.

Legend:
Assay type in all cases: cell-based
[1] = test system: Strep. 641848-C; assay: Human bacteria MIC, nutrient agar with chocolated horse blood (Table 3)
Experimental: (§1) The values were determined by serial dilutions in nutrient agar with 5% chocolated horse blood after incubations for 18 hours at 37° C.

[2] = test system: E. coli ESS; assay: as above; settings: Escherichia coli
Experimental: as §1

[3] = test system: M. gallisepticum S6; assay: Anti-mycoplasmal MIC in vitro, Friis broth agarose (Table 1); settings: Mycoplasmoides gallisepticum
[4] = test system: M. suipneumoniae J2206/183b; assay: as above; settings: Mesomycoplasma hyopneumoniae, 144 h; M. suipneumoniae J2206/183b; in vitro, 6 days 37° C.; read-out: MIC
[5] = test system: M. hyorhinis ATCC 25021; assay: as above; settings: Mesomycoplasma hyorhinis, ATCC25021, 144 h
[6] = test system: M. suipneumoniae NCTC 10110; assay: as above; settings: Mesomycoplasma hyopneumoniae, NCTC10110, 144 h
[7] = test system: M. suipneumoniae Str. 11; assay: as above; settings: Mesomycoplasma hyopneumoniae
[8] = test system: M. suipneumoniae ATCC 25095; assay: as above; settings: Mesomycoplasma hyopneumoniae, ATCC25095, 144 h
[9] = test system: M. suipneumoniae LABER; assay: as above; settings: Mesomycoplasma hyopneumoniae, 144 h
[10] = test system: M. suipneumoniae TAM 6N; assay: as above; settings: Mesomycoplasma hyopneumoniae, TAM6N, 144 h; M. suipneumoniae TAM 6N; in vitro, 6 days 37° C.; read-out: MIC
[11] = test system: M. suipneumoniae MS 16; assay: as above; settings: Mesomycoplasma hyopneumoniae, MS16, 144 h
[12] = test system: M. bovis RCTC 10131; assay: microbe, parasite or virus in culture; settings: RCTC10131, 144 h
[13] = test system: M. suipneumoniae PW/C/210; assay: Anti-mycoplasmal MIC in vitro, Friis broth agarose (Table 1); settings: Mesomycoplasma hyopneumoniae, 144 h
[14] = test system: M. suipneumoniae HR(2); assay: as above; settings: Mesomycoplasma hyopneumoniae, 144 h
[15] = test system: Staph. aureus Oxford; assay: Veterinary bacteria MIC, Diagnostic Sensitivity Test Agar (Table 2); settings: Staphylococcus aureus
Experimental: (§2) The values were determined using a two fold serial dilutions in Diagnostic Sensitivity Test Agar with an inoculum of 10^4 organisms and incubation for 18 hours at 37° C.

[16] = test system: Strep. suis (group D) SPS11; assay: as above; settings: Streptococcus suis
Experimental: as §2

[17] = test system: Erysipelothrix rhusiopathiae NCTC 8163; assay: as above; settings: NCTC8163; Erysipelothrix rhusiopathiae NCTC 8163; DST Agar, 10^4 organisms, 18 hours 37° C.; read-out: MIC
Experimental: as §2

[18] = test system: Past. multocida PA2; assay: as above; settings: Pasteurella multocida; Past. multocida PA2; DST Agar, 10^4 organisms, 18 hours 37° C.; read-out: MIC
Experimental: as §2

[19] = test system: Strep. dylgalactiae SPD1; assay: as above
Experimental: as §2

[20] = test system: S. typhimurium S18; assay: as above; settings: Salmonella enterica
Experimental: as §2

[21] = test system: Strep. agalactiae SPA1; assay: as above; settings: Streptococcus agalactiae; Strep. agalactiae SPA1; DST Agar, 10^4 organisms, 18 hours 37° C.; read-out: MIC
Experimental: as §2

[22] = test system: S. dublin S7; assay: as above; settings: Salmonella enterica
Experimental: as §2

[23] = test system: Staph. aureus B4; assay: as above; settings: Staphylococcus aureus; Staph. aureus B4; DST Agar, 10^4 organisms, 18 hours 37° C.; read-out: MIC
Experimental: as §2

[24] = test system: E. Coli E1; assay: as above; settings: Escherichia coli
Experimental: as §2

[25] = test system: Staph. aureus 152; assay: as above
Experimental: as §2

[26] = test system: Corynebacterium pyogenes CY1; assay: as above; settings: Trueperella pyogenes
Experimental: as §2

[27] = test system: Neisseria catarrhalis 1502; assay: Human bacteria MIC, nutrient agar with chocolated horse blood (Table 3)
Experimental: as §1

[28] = E. coli ESS, nutrient agar 5% chocolated horse blood, 18 hours 37° C., read-out: MIC
[29] = M. suipneumoniae HR(2), in vitro, 6 days 37° C., read-out: MIC
[30] = Staph. aureus Oxford, DST Agar, 10^4 organisms, 18 hours 37° C., read-out: MIC
[31] = Strep. dylgalactiae SPD1, DST Agar, 10^4 organisms, 18 hours 37° C., read-out: MIC
[32] = S. typhimurium S18, DST Agar, 10^4 organisms, 18 hours 37° C., read-out: MIC
[33] = S. dublin S7, DST Agar, 10^4 organisms, 18 hours 37° C., read-out: MIC
[34] = E. Coli E1, DST Agar, 10^4 organisms, 18 hours 37° C., read-out: MIC
[35] = Staphylococcus aureus, Staph. aureus 152, DST Agar, 10^4 organisms, 18 hours 37° C., read-out: MIC
[36] = Strep. 641848-C, nutrient agar 5% chocolated horse blood, 18 hours 37° C., read-out: MIC
[37] = 144 h, M. gallisepticum S6, in vitro, 6 days 37° C., read-out: MIC
[38] = Strep. suis (group D) SPS11, DST Agar, 10^4 organisms, 18 hours 37° C., read-out: MIC

Row | SMILES | MIC [2, 28] [µg/mL] | MIC [4] [µg/mL] | MIC [5] [µg/mL] | MIC [6] [µg/mL] | MIC ([7]; STR.11, 144 h) [µg/mL] | MIC [8] [µg/mL] | MIC [9] [µg/mL] | MIC [10] [µg/mL] | MIC [11] [µg/mL] | MIC [12] [µg/mL] | MIC [13] [µg/mL] | MIC [14, 29] [µg/mL] | MIC [15, 30] [µg/mL] | MIC [17] [µg/mL] | MIC [18] [µg/mL] | MIC [19, 31] [µg/mL] | MIC [20, 32] [µg/mL] | MIC [21] [µg/mL] | MIC [22, 33] [µg/mL] | MIC [23] [µg/mL] | further results
1 | C/C(=C\C(=O)OCc1ccc([N+](=O)[O-])cc1)CC1OCC(CC2OC2C(C)C(C)O)C(O)C1O (centres unmarked) [Example 1, p-nitrobenzyl monate A] | 0.5 (≈ 1.04 µM) | 0.1 (≈ 0.209 µM) | 0.05 (≈ 0.104 µM) | 0.05 (≈ 0.104 µM) | 0.05 (≈ 0.104 µM) | 0.05 (≈ 0.104 µM) | 0.05 (≈ 0.104 µM) | 0.1 (≈ 0.209 µM) | 0.05 (≈ 0.104 µM) | < 0.01 | 0.05 (≈ 0.104 µM) | 0.1 (≈ 0.209 µM) | 0.156 (≈ 0.325 µM) | 10 (≈ 20.9 µM) | > 0.019 | 0.07 (≈ 0.146 µM) | 40 (≈ 83.4 µM) | 0.317 (≈ 0.661 µM) | 40 (≈ 83.4 µM) | 0.156 (≈ 0.325 µM) | MIC ([1]; 18 h): 0.25 µg/mL (≈ 0.521 µM); MIC ([3]; S6, 144 h): 0.25 µg/mL (≈ 0.521 µM); MIC ([16]; 18 h): 1.25 µg/mL (≈ 2.61 µM); MIC [24, 34]: 40 µg/mL (≈ 83.4 µM); MIC [25, 35]: 0.156 µg/mL (≈ 0.325 µM); MIC ([26]; CY1, 18 h): > 80 µg/mL
2 | C/C(=C\C(=O)OC(C)c1cccc([N+](=O)[O-])c1)CC1OCC(CC2OC2C(C)C(C)O)C(O)C1O (centres unmarked) [Example 3, 1-(m-nitrophenyl)ethyl monate A] | 10 (≈ 20.3 µM) | 0.25 (≈ 0.507 µM) |  |  |  |  |  | 0.25 (≈ 0.507 µM) |  | 0.025 (≈ 0.0507 µM) |  | 0.25 (≈ 0.507 µM) | 2.5 (≈ 5.07 µM) | 80 (≈ 162 µM) | 2.5 (≈ 5.07 µM) | 1.25 (≈ 2.53 µM) | > 80 | 2.5 (≈ 5.07 µM) | > 80 | 2.5 (≈ 5.07 µM) | MIC [1, 36]: 2.5 µg/mL (≈ 5.07 µM); MIC ([27]; Neisseria, 1502, 18 h): 1 µg/mL (≈ 2.03 µM); MIC [3, 37]: > 10 µg/mL; MIC ([5]; M. hyorhinis ATCC 25021, in vitro, 6 days 37° C., read-out: MIC): 0.1 µg/mL (≈ 0.203 µM); MIC ([6]; M. suipneumoniae NCTC 10110, in vitro, 6 days 37° C., read-out: MIC): 0.25 µg/mL (≈ 0.507 µM); MIC ([7]; 144 h, M. suipneumoniae Str. 11, in vitro, 6 days 37° C., read-out: MIC): 0.1 µg/mL (≈ 0.203 µM); MIC ([8]; M. suipneumoniae ATCC 25095, in vitro, 6 days 37° C., read-out: MIC): 0.1 µg/mL (≈ 0.203 µM); MIC ([9]; M. suipneumoniae LABER, in vitro, 6 days 37° C., read-out: MIC): 0.1 µg/mL (≈ 0.203 µM); MIC ([11]; M. suipneumoniae MS 16, in vitro, 6 days 37° C., read-out: MIC): 0.1 µg/mL (≈ 0.203 µM); MIC ([13]; M. suipneumoniae PW/C/210, in vitro, 6 days 37° C., read-out: MIC): 0.1 µg/mL (≈ 0.203 µM); MIC [16, 38]: 40 µg/mL (≈ 81 µM); MIC [24, 34]: > 80 µg/mL; MIC [25, 35]: 2.5 µg/mL (≈ 5.07 µM); MIC ([26]; Corynebacterium pyogenes CY1, DST Agar, 10^4 organisms, 18 hours 37° C., read-out: MIC): > 80 µg/mL
3 | C/C(=C\C(=O)OCc1cccc([N+](=O)[O-])c1C)CC1OCC(CC2OC2C(C)C(C)O)C(O)C1O (centres unmarked) [Example 8, 2-methyl-3-nitrobenzyl monate A] |  | 0.25 (≈ 0.507 µM) | 0.1 (≈ 0.203 µM) | 0.1 (≈ 0.203 µM) | 0.1 (≈ 0.203 µM) | 0.1 (≈ 0.203 µM) | 0.1 (≈ 0.203 µM) | 0.25 (≈ 0.507 µM) | 0.1 (≈ 0.203 µM) | < 0.01 | 0.1 (≈ 0.203 µM) |  |  | 20 (≈ 40.5 µM) | 1.25 (≈ 2.53 µM) |  |  | 0.625 (≈ 1.27 µM) |  | 0.625 (≈ 1.27 µM) | MIC [1, 36]: 0.5 µg/mL (≈ 1.01 µM); MIC ([27]; Neisseria catarrhalis 1502, nutrient agar 5% chocolated horse blood, 18 hours 37° C., read-out: MIC): 0.25 µg/mL (≈ 0.507 µM); MIC ([2]; 18 h): 1 µg/mL (≈ 2.03 µM); MIC [3, 37]: 5 µg/mL (≈ 10.1 µM); MIC [14]: 0.1 µg/mL (≈ 0.203 µM); MIC ([15]; 18 h): 0.312 µg/mL (≈ 0.632 µM); MIC [16, 38]: 5 µg/mL (≈ 10.1 µM); MIC ([19]; 18 h): 0.312 µg/mL (≈ 0.632 µM); MIC ([20]; TYPHIMURIUM, 18 h): > 80 µg/mL; MIC ([22]; S7, 18 h): > 80 µg/mL; MIC ([24]; 18 h): > 80 µg/mL; MIC ([25]; Staphylococcus aureus, 152, 18 h): 0.312 µg/mL (≈ 0.632 µM); MIC ([26]; CY1, 18 h): > 80 µg/mL
